ChEMBL document CHEMBL1201862, “PubChem BioAssay data set” (2004)
Active and inactive are the calls of the source.

Experiments:
Interleukin-8 [1] = molecular target: T1, Interleukin-8 (Homo sapiens, UniProt P10145); test: Dose Response confirmation of uHTS small molecule hits for cystic fibrosis induced NFkb Inhibitors in a TNFa-induced IL8 counterscreen.; type: functional; details: read-out: IC50_Mean
T1 sequence (P10145 whole entry): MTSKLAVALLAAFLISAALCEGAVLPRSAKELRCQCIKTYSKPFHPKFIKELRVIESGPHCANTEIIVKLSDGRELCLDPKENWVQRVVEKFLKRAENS

Interleukin-8 [2] = molecular target: T1, Interleukin-8; test: Dose Response confirmation of uHTS small molecule hits for cystic fibrosis induced NFkb Inhibitors in a PAF-induced IL8 counterscreen.; type: functional; details: read-out: IC50_Mean
[3] = ARNT/TACC3 interaction disruptors, potency, confirmation, biochemical, AlphaScreen, cherry-picked samples (AID 651703); type: functional, Homo sapiens;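 note: His-tagged ARNT PAS-B domain paired with GST-TACC3 E629A dimer coactivator fragment; potency of inhibitors that break up the complex and lower AlphaScreen signal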
[4] = molecular target: Ras and Rab interactor 1/Tyrosine-protein kinase ABL1 (Homo sapiens, UniProt P00519+Q13671); type: functional;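 note: biochemical TR-FRET dose-response test measuring inhibition of binding between Rin1 and Abl proteins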
Sequence of Ras and Rab interactor 1/Tyrosine-protein kinase ABL1 (P00519 whole entry): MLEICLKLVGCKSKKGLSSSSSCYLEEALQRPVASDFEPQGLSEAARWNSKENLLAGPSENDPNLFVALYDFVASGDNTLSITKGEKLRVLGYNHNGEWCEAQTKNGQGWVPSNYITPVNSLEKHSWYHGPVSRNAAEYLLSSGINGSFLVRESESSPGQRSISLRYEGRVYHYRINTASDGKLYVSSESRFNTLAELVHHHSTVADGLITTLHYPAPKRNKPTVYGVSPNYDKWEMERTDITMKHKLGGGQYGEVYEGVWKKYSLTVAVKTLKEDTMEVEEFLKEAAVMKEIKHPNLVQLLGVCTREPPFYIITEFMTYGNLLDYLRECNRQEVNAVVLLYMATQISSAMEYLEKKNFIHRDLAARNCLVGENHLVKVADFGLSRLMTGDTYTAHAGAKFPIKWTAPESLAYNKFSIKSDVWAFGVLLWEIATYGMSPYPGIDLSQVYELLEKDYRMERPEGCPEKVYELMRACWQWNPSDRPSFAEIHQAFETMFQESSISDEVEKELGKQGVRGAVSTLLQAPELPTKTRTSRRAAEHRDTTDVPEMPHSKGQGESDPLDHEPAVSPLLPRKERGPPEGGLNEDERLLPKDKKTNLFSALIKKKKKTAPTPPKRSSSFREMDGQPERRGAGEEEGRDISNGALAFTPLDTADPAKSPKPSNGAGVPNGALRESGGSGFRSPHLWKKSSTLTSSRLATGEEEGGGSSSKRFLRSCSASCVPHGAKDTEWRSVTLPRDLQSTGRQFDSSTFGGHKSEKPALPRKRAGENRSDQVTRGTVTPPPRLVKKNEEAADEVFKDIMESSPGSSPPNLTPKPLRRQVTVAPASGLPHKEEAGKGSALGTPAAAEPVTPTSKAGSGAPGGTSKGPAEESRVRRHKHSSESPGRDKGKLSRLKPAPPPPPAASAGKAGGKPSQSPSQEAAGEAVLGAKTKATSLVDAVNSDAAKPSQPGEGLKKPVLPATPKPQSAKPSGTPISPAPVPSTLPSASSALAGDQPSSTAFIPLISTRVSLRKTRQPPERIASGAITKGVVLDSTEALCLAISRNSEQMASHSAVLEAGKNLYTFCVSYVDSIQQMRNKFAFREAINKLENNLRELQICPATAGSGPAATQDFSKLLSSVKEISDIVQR
Sequence of Ras and Rab interactor 1/Tyrosine-protein kinase ABL1 (Q13671 whole entry): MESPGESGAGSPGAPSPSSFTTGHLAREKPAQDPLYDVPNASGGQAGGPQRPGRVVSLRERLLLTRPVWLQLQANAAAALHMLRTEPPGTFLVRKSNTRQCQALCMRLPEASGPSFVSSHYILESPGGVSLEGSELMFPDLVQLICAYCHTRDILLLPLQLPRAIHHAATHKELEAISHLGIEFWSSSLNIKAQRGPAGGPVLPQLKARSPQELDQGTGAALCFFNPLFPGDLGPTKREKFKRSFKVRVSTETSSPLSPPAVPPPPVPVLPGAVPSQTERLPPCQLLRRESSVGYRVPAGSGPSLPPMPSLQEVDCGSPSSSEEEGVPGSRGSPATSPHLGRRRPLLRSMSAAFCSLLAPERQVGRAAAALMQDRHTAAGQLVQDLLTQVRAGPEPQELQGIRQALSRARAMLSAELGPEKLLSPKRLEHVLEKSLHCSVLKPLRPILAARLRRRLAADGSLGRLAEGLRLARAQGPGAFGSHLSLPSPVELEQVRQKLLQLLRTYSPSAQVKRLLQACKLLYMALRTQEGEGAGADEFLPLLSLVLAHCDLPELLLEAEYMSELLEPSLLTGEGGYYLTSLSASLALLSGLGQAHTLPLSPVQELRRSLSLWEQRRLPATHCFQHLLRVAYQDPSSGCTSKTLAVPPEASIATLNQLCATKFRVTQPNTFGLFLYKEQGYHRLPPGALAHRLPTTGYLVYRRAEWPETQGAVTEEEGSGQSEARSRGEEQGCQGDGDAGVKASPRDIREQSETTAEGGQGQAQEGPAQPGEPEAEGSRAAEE

[5] = StAR promoter reporter inhibition counter-screen, dose response, counter-screen for LRH-1 inverse agonist project, cell-based, luminescence, luciferase reporter (AID 651969); type: functional
Steroidogenic factor 1 = Steroidogenic factor 1 (Homo sapiens, UniProt Q13285); test: Counterscreen for inverse agonists of the liver receptor homolog-1 (LRH-1; NR5A2): Luminescence-based cell-based high throughput dose response assay to identify inverse agonists of the Steroidogenic Factor 1 Nuclear Receptor (SF1; NR5A1).; type: functional
Sequence of Steroidogenic factor 1 (Q13285 whole entry): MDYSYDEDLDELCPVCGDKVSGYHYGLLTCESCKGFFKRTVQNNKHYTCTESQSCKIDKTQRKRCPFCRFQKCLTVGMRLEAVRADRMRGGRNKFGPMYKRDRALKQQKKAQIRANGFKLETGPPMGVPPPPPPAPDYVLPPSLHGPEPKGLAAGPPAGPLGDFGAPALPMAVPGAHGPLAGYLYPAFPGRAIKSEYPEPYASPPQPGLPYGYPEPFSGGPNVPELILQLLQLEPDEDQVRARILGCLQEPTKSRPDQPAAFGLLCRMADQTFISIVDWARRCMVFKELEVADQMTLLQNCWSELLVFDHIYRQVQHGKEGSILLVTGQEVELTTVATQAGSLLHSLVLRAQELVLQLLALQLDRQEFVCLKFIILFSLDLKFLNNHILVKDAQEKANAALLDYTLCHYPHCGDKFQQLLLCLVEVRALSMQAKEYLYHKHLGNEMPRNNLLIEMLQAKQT

[6] = molecular target: Nuclear receptor subfamily 5 group A member 2 (Homo sapiens, UniProt O00482); type: functional, cell-based;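 note: HEK293T cells transfected with LRH-1 and a StAR promoter luciferase reporter; potency for inhibitors that lower LRH-1 driven reporter light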
Sequence of Nuclear receptor subfamily 5 group A member 2 (O00482 whole entry): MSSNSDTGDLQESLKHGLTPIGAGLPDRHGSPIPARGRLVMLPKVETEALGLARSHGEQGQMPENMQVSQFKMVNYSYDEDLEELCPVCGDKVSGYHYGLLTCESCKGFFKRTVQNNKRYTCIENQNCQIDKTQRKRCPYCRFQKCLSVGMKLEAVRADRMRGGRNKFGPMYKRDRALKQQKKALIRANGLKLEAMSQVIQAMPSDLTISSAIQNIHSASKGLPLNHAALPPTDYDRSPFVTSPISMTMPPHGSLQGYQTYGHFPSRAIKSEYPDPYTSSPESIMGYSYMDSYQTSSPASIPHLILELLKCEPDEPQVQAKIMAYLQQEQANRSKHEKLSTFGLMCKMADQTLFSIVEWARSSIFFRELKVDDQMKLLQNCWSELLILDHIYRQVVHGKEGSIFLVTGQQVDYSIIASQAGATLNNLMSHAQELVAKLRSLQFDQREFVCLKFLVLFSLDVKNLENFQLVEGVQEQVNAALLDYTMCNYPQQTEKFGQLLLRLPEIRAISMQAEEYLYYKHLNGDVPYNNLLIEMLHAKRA

BJ [7] = test: cytotoxicity toward BJ-TERT fibroblasts, dose response, cell-based, RAS-independent, luminescence (AID 1933); type: functional; details: Homo sapiens
BJ [8] = test: cells; type: functional, cell-based; details: Homo sapiens
BJ [9] = test: cytotoxicity toward Ras-transformed BJeLR fibroblasts, dose response, cell-based, alamar blue fluorescence, cherrypicked samples (AID 2631); type: functional; details: Homo sapiens;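 note: confirmatory dose-response assay in RAS-dependent BJ fibroblasts engineered with TERT, LT and ST, with cytotoxicity read by fluorescence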
[10] = molecular target: T2, Oxysterols receptor LXR-beta (Homo sapiens, UniProt P55055); type: functional, cell-based;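 note: Cell-based luminescence dose-response assay of agonist activity at LXR, run as a confirmatory counterscreen to a daf-12 agonist screen; HEK293 cells with Gal4-LXR fusion and GAL4-driven luciferase reporter; agonist potency from rising luciferase signal of a Gal4-LXR reporter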
T2 sequence (P55055 whole entry): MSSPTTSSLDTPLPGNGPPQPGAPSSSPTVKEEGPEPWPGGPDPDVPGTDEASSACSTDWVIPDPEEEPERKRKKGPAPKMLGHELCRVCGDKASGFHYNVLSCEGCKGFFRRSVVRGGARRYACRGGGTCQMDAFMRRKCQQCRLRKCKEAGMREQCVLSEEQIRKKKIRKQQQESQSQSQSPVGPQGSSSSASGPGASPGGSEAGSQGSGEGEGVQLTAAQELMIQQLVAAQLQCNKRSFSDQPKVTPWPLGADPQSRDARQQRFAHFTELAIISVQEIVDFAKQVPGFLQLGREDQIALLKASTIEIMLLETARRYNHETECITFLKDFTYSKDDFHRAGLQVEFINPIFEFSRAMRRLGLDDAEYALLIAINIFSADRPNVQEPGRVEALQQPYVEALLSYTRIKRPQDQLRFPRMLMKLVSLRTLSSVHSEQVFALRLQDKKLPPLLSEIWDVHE

[11] = cytotoxicity toward DRD oncogenic fibroblasts, dose response, cell-based, non-viral oncogenic, luminescence (AID 1934); type: functional; details: Homo sapiens
BJ [12] = test: cytotoxicity toward BJ-TERT-LT-ST fibroblasts, dose response, cell-based, RAS-independent, luminescence (AID 1935); type: functional; details: Homo sapiens;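 note: BJ fibroblasts immortalized with TERT plus LT and ST oncogenes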
Streptococcus = test: Group A Streptococcus viability loss, dose response, counter-screen for streptokinase expression inhibitor project, luminescence, BacTiterGlo (AID 1915); type: functional, organism-based;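 note: potency for reduction of bacterial viability or growth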
Streptokinase A = molecular target: T3, Streptokinase A (Streptococcus pyogenes serotype M1, UniProt P10520); test: S. pyogenes streptokinase expression inhibitors, potency, dose response, plasminogen activation absorbance, OD405 (AID 1914); type: functional, Streptococcus pyogenes M1 GAS;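 note: secreted streptokinase activity via plasminogen activation per viability signal from cell pellet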
T3 sequence (P10520 whole entry): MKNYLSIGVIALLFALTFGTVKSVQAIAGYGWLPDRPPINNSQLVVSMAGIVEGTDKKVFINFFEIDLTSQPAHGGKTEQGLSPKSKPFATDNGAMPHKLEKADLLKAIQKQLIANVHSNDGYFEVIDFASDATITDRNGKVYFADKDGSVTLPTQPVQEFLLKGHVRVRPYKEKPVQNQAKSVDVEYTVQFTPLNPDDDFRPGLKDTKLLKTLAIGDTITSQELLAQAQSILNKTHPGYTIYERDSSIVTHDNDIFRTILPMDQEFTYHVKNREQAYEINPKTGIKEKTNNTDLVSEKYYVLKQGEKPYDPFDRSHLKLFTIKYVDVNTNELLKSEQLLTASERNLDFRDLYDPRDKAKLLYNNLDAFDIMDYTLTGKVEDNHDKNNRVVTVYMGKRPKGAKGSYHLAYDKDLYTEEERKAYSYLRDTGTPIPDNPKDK

[13] = system: Streptococcus sp. 'group A'; test: growth inhibition of control SK(-) GAS strain, dose response, counter-screen for streptokinase expression inhibitor project, luminescence, kanamycin, BacTiterGlo, confirmation (AID 1900); type: functional, organism-based

Which results are given for `CS(=O)(=O)c1ccc2nc(NC(=O)CCS(=O)(=O)c3ccccc3)sc2c1`?
IC50 (Interleukin-8 [1]): 1.5 µM (active); IC50 (Interleukin-8 [2]): 1.36 µM (active)

For `CC1=CC(C)(C)N(C(=O)C(C)N2C(=O)c3ccccc3C2=O)c2ccc(C)cc21` (configuration not stated), which AC50 [3] is on record?
Its AC50 is 119 µM (active).

Which IC50 [4] does the source give for `CN1CCN(C(=O)CSc2nc(-c3ccncc3)ccc2C#N)CC1` here?
The IC50 was 39 µM (inactive).

For `NS(=O)(=O)c1ccc(CCNC(=O)COc2ccc3c4c(c(=O)oc3c2)CCC4)cc1`, which IC50 [5] is on record?
Its IC50 is 35.9 µM (inactive).

What about the IC50 (Steroidogenic factor 1) of the same compound?
The IC50 was 35.9 µM (inactive).

What about the IC50 [6] of the same compound?
Its IC50 is 35.9 µM (inactive).

With `COc1cccc(NC(=O)n2ncc3c(C)cccc32)c1` as the compound, how does the EC50 (BJ [7]) read?
Its EC50 is 11.5 µM (active).

What about the EC50 (BJ [8]) of the same compound?
The EC50 was 8.05 µM (active).

What about the EC50 (BJ [9]) of the same compound?
Its EC50 is > 133 µM (inactive).

What about the EC50 [10] of the same compound?
Its EC50 is > 67.5 µM (inactive).

And the EC50 [11]?
Its EC50 is 6.62 µM (active).

And the EC50 (BJ [12])?
Its EC50 is 18.2 µM (active).

And the EC50 (cells)?
The EC50 was > 67.5 µM (inactive).

With `COc1ccc(-c2c[nH]nc2-c2ccc(OC)cc2)cc1` as the compound, how does the IC50 (Interleukin-8 [1]) read?
Its IC50 is 3.57 µM (active).

What about the EC50 (Streptococcus) of the same compound?
Its EC50 is 8.74 µM (active).

What about the IC50 (Interleukin-8 [2]) of the same compound?
Its IC50 is 5.39 µM (active).

What about the EC50 (Streptokinase A) of the same compound?
Its EC50 is > 150 µM (not active).

And the EC50 [13]?
Its EC50 is 3.33 µM (active).

What does the source list for `CCC(C)(C)n1nnnc1CN1CCC(O)(c2cccc(C(F)(F)F)c2)CC1`?
IC50 [5]: 35.9 µM (inactive); IC50 (Steroidogenic factor 1): 12.4 µM (inactive); IC50 [6]: 9.63 µM (active)
